# The RepoRT retention time repository
# Test: Waters ACQUITY UPLC BEH C18, 100 × 2.1 mm, 1.7 µm, 40 °C, 0.3 to 0.4 mL/min, estimated dead time 0.63 min; A: water + 0.1% formic acid; B: methanol + 0.1% formic acid; gradient (min/%B) 0/0.5 0.1/0.5 10/80 10.1/99.5 12/99.5
# Settings: stereoisomer not certain
row,LC retention time [min],SMILES
1,2.94,CC1OC(OCC2OC(Oc3cc4c(O)cc(O)cc4[o+]c3-c3ccc(O)c(O)c3)C(O)C(O)C2O)C(O)C(O)C1O (centres undefined)
2,4.9,COc1cc(-c2cc(=O)c3c(O)cc(OC4OC(C(=O)O)C(O)C(O)C4OC4OC(COC(=O)C=Cc5ccc(O)cc5)C(O)C(O)C4O)cc3o2)cc(OC)c1O (centres undefined)
3,3.42,COC(=O)C1=COC(OC2OC(CO)C(O)C(O)C2O)C2C(CO)=CCC12 (centres undefined)
4,4.89,O=C(O)CC(=O)OCC1OC(Oc2cc(O)c3c(=O)c(-c4ccc(O)cc4)coc3c2)C(O)C(O)C1O (centres undefined)
5,7.84,O=C(C=CC=Cc1ccc2c(c1)OCO2)N1CCCCC1
6,3.84,CC(=O)OC1CC(COC2OC(CO)C(O)C(O)C2OC2OC(CO)C(O)C(O)C2O)CNC12OC1CC3C4CCC5CC(OC6OC(CO)C(OC7OC(CO)C(OC8OCC(O)C(O)C8O)C(O)C7OC7OC(CO)C(O)C(O)C7O)C(O)C6O)CCC5(C)C4CCC3(C)C1C2C (centres undefined)
7,4.08,COc1cc2oc(-c3ccc(O)cc3)cc(=O)c2c(O)c1C1OC(CO)C(O)C(O)C1O (centres undefined)
8,3.78,CCCSSCC(NC(=O)CCC(N)C(=O)O)C(=O)NCC(=O)O (centres undefined)
9,3.4,CC1OC(OCC2OC(Oc3c(-c4ccc(O)cc4)oc4cc(OC5OC(C)C(O)C(O)C5O)cc(O)c4c3=O)C(O)C(O)C2O)C(O)C(O)C1O (centres undefined)
10,7.91,C=C1CCCC2(C)CC3(O)OC(=O)C(C)=C3CC12 (centres undefined)
11,7.27,COc1c(O)cc(O)c2c(=O)cc(-c3ccccc3)oc12
12,10.2,CCCCCC=CC=CC(=O)CCCCCCCC(=O)O
13,4.57,COc1cc(C(O)C(COC2OC(CO)C(O)C(O)C2O)Oc2c(OC)cc(-c3cc(=O)c4c(O)cc(O)cc4o3)cc2OC)ccc1O (centres undefined)
14,1.87,CC(C)CC(N)C(=O)O (centres undefined)
15,4.35,O=C(O)CC(=O)NC(Cc1c[nH]c2ccccc12)C(=O)O (centres undefined)
16,2.8,NC(Cc1c[nH]c2ccccc12)C(=O)O (centres undefined)
17,6.4,O=c1cc(-c2ccccc2)oc2cc(O)c(O)c(O)c12
18,2.79,COc1cc(-c2[o+]c3cc(O)cc(OC4OC(CO)C(O)C(O)C4O)c3cc2OC2OC(CO)C(O)C(O)C2O)ccc1O (centres undefined)
19,3.79,CCC(C)C(NC(=O)C(N)Cc1ccccc1)C(=O)O (centres undefined)
20,7.45,CC1(C)CCC2(C(=O)O)CCC3(C)C(=CCC4C5(C)CC(O)C(O)C(C)(C(=O)OC6OC(COC(=O)CC(=O)O)C(O)C(O)C6O)C5CCC43C)C2C1 (centres undefined)
21,3.14,O=C(CCc1ccc(O)c(O)c1)NCCCCNCCCNC(=O)CCc1ccc(O)c(O)c1
22,4.15,CC1OC(OC2C(O)C(CO)OC(Oc3c(-c4ccc(O)cc4)oc4cc(O)cc(O)c4c3=O)C2O)C(O)C(O)C1O (centres undefined)
23,5.15,CCOC1OC2c3cc4c(cc3CCN(C)C2c2ccc3c(c21)OCO3)OCO4 (centres undefined)
24,3.44,O=c1cc(-c2ccc(O)c(O)c2)oc2cc(O)c(C3OC(CO)C(O)C(O)C3OC3OC(CO)C(O)C(O)C3O)c(O)c12 (centres undefined)
25,8.06,CC(C)=CCc1cc(-c2coc3cc(O)c(CC=C(C)C)c(O)c3c2=O)cc(O)c1O

row,LC retention time [min],SMILES
1,4.28,COc1cc2ccc(=O)oc2c(OC)c1O
2,3.3,Cc1cc2[nH]c(=O)c(=O)n(CC(O)C(O)C(O)CO)c2cc1C (centres undefined)
3,8.85,CCCCCC=CCC=CCC=CCCCCC(=O)OCC(O)COP(=O)([O-])OCC[N+](C)(C)C (centres undefined)
4,4.54,O=C(C=Cc1ccc(O)c(O)c1)OC1CC2(O)CC(OC2=O)C1OC(=O)C=Cc1ccc(O)c(O)c1 (centres undefined)
5,7.28,CC1OC(OC2C(OC3C(OC4CCC5(C)C(CCC6(C)C5CC=C5C7CC(C)(C)CC(O)C7(C)CCC56C)C4(C)CO)OC(C(=O)O)C(O)C3O)OCC(O)C2O)C(O)C(O)C1O (centres undefined)
6,5.05,CC(CCC1(O)OC2CC3C4CC=C5CC(OC6OC(CO)C(OC7OC(C)C(O)C(O)C7O)C(O)C6OC6OC(C)C(O)C(O)C6O)CCC5(C)C4CCC3(C)C2C1C)COC1OC(CO)C(O)C(O)C1O (centres undefined)
7,4.34,O=C(O)C1OC(Oc2c(-c3ccc(O)cc3)oc3cc(O)cc(O)c3c2=O)C(O)C(O)C1O (centres undefined)
8,5.46,C=CC1c2cc3n(c(=O)c2C2OC1OC1OC(CO)C(O)C(O)C1O2)CCc1c-3[nH]c2ccccc12 (centres undefined)
9,4.24,COc1cc2ccc(=O)oc2cc1O
10,3.84,COc1cc(CC(=O)O)ccc1O
11,5.35,O=C1CC(c2ccc(O)c(O)c2)Oc2cc(O)cc(O)c21 (centres undefined)
12,5.32,O=C(C=Cc1ccc(O)cc1)OC1C(Oc2c(-c3ccc(O)cc3)oc3cc(O)cc(O)c3c2=O)OC(CO)C(O)C1O (centres undefined)
13,2.28,CS(=O)CCCCCCCC(N)C(=O)O (centres undefined)
14,7.33,CC1(C)CCC2(C(=O)O)C(O)CC3(C)C(=CCC4C5(C)CCC(OC6OC(CO)C(O)C(O)C6O)C(C)(C)C5CCC43C)C2C1 (centres undefined)
15,2.06,O=C1NCC(=O)N2CCCC12 (centres undefined)
16,1.57,O=C(O)CC(O)(CC(=O)O)C(=O)O
17,7.39,CCCCCC=CCC=CCC=CCC=CCCCC(=O)O
18,7.04,CC(C)=CCc1c(O)cc(O)c2c1OCC(c1ccc(O)cc1O)C2=O (centres undefined)
19,3.5,COc1ccc2c(c1)OC(OC1OC(CO)C(O)C(O)C1O)C(=O)N2O (centres undefined)
20,7.42,COc1cc(O)c2c(c1)OC(c1ccc(O)cc1)CC2=O (centres undefined)
21,4.19,COc1cc(C=CC(=O)OCC2OC(OC3C(c4c(O)cc5oc(-c6ccc(O)c(OC)c6)cc(=O)c5c4O)OC(CO)C(O)C3O)C(O)C(O)C2O)ccc1O (centres undefined)
22,3.03,C=C1CC23CC4C5C6(C)CC(OC(C)=O)CC57C2C(O)C1C(O)C3(O)C7N4C6 (centres undefined)
23,4.88,CC1CCC2(C(=O)OC3OC(COC4OC(CO)C(OC5OC(C)C(O)C(O)C5O)C(O)C4O)C(O)C(O)C3O)CCC3(C)C(=CCC4C5(C)CC(O)C(O)C(C)(CO)C5C(O)CC43C)C2C1C (centres undefined)
24,5.26,COc1ccc(-c2cc(=O)c3c(O)cc(OC4OC(CO)C(O)C(O)C4OC4OC(C)C(O)C(O)C4O)cc3o2)cc1 (centres undefined)
25,6.06,CC1(C)CCC2(C(=O)OC3OC(CO)C(O)C(O)C3O)C(O)CC3(C)C(=CCC4C5(C)CCC(OC6OCC(O)C(OC7OC(CO)C(O)C(O)C7O)C6O)C(C)(C)C5CCC43C)C2C1 (centres undefined)

row,LC retention time [min],SMILES
1,4.17,COc1cc(-c2oc3cc(O)cc(O)c3c(=O)c2OC2OC(COC3OC(C)C(O)C(O)C3O)C(O)C(O)C2O)ccc1O (centres undefined)
2,5.5,CC1(C)CC2C3=CCC4C5(C)CCC(OC6OC(C(=O)O)C(O)C(O)C6OC6OC(CO)C(O)C(O)C6OC6OC(CO)C(O)C(O)C6O)C(C)(CO)C5CCC4(C)C3(C)CCC2(C)CC1OC1OCC(O)C(O)C1O (centres undefined)
3,4.26,CCC12C=CCN3CCc4c(n(c5ccccc45)C(O)(C(=O)OC)C1)C32 (centres undefined)
4,4.55,CC(NC(=O)Cc1c[nH]c2ccccc12)C(=O)O (centres undefined)
5,2.02,CC(C)CC(N)C(=O)NC(C)C(=O)O (centres undefined)
6,4.78,O=C(O)CCCCCCCC(=O)O
7,6.57,COc1ccc(C(C)=O)c(O)c1
8,2.95,CC1OC(Oc2cc(O)c3c(=O)c(OC4OC(CO)C(O)C(O)C4OC4OC(CO)C(O)C(O)C4O)c(-c4ccc(O)c(O)c4)oc3c2)C(O)C(O)C1O (centres undefined)
9,2.04,O=C(O)c1cc(O)c(O)c(O)c1
10,3.87,COc1cc(C=CC(=O)OCC2OC(OC3C(c4c(O)cc5oc(-c6ccc(O)c(O)c6)cc(=O)c5c4O)OC(CO)C(O)C3O)C(O)C(O)C2O)ccc1O (centres undefined)
11,5.07,C=CC1C(OC2OC(CO)C(O)C(O)C2O)OC(O)=C2C(=O)N3CCc4c([nH]c5ccccc45)C3=CC21 (centres undefined)
12,6.19,O=C(Cc1c[nH]c2ccccc12)NC(Cc1c[nH]c2ccccc12)C(=O)O (centres undefined)
13,3.18,Cc1[nH]ccc2c1[nH]c1cc(=O)ccc12
14,3.27,O=c1c(-c2ccc(O)cc2)coc2c(C3OC(CO)C(O)C(O)C3O)c(O)ccc12 (centres undefined)
15,4.65,CCC12CCCN3CCc4c(n(c5ccccc45)C(=O)C1)C32 (centres undefined)
16,4.73,COc1cc(C=CC=O)cc(OC)c1O
17,4.69,CC(CCC1(O)OC2CC3C4CCC5(O)CC(OC6OC(CO)C(O)C(O)C6O)C(O)CC5(C)C4CCC3(C)C2C1C)COC1OC(CO)C(O)C(O)C1O (centres undefined)
18,3.31,C=CC1CN2CCC1CC2C(O)c1ccnc2ccc(OC)cc12 (centres undefined)
19,7.68,CC1=C(O)C(=O)CC(OC2CC(C)(C)CC3C4=CCC5C6(C)CCC(OC7OC(C(=O)O)C(O)C(O)C7OC7OC(CO)C(O)C(O)C7OC7OC(C)C(O)C(O)C7O)C(C)(CO)C6CCC5(C)C4(C)CCC23C)O1 (centres undefined)
20,2.22,NCCCCNC(=O)C=Cc1ccc(O)c(O)c1
21,6.59,CC(C)=CCCC(C)(OC1OC(CO)C(O)C(O)C1O)C1CCC2(C)C1C(O)CC1C3(C)CCC(O)C(C)(C)C3C(O)CC12C (centres undefined)
22,5.16,O=C(O)CC(=O)OCC1OC(Oc2cc(O)c3c(=O)cc(-c4ccc(O)cc4)oc3c2)C(O)C(O)C1O (centres undefined)
23,4.03,O=c1c(OC2OC(CO)C(O)C(O)C2O)c(-c2ccc(O)c(O)c2)oc2cc(O)cc(O)c12 (centres undefined)

row,SMILES,LC retention time [min]
1,CC(C)=CCCC(C)(O)C1CCC2(C)C1C(O)CC1C3(C)CCC(OC4OC(CO)C(O)C(O)C4O)C(C)(C)C3CCC12C (centres undefined),9.84
2,CCN1CC2(COC)C(OC(C)=O)CC(OC)C34C5CC6(O)C(OC)C(O)C(OC(C)=O)(C5C6OC(=O)c5ccccc5)C(C(OC)C23)C14 (centres undefined),6.17
3,COC1=CC2C3Cc4ccc(OC)c(O)c4C2(CCN3C)CC1=O (centres undefined),3.03
4,CCc1nccc2c1[nH]c1ccccc12,4.01
5,CCN1CC2(OC(=O)c3ccccc3N)CCC(OC)C34C1C(CC23)C1(O)CC(OC)C2CC4C1(O)C2OC (centres undefined),4.95
6,COc1ccc2c(c1OC)C(=O)OC2C1c2cc3c(cc2CCN1C)OCO3 (centres undefined),4.21
